Results published in EP4782434A1, “N-SULFONYL CARBOXAMIDE COMPOUND, AND PREPARATION METHOD THEREFOR AND USE THEREOF” (Nutshell Therapeutics (Shanghai) Co., Ltd., priority 2023, dated 2025).
pIC50: −log10 of the molar value. ≈ marks a conversion by molar mass, not a printed value.

Experiments:
[1] = system: DLD-1 BRCA2-/- cells; experiment: DLD-1 BRCA2-/- cell proliferation assay (CellTiter-Glo, 10 days incubation); format: cell-based; details: Homo sapiens, 240 h, DLD-1 BRCA2-/- cell line, total incubation period of 10 days, read-out: DLD1 BRCA2^-/- IC50
Excerpt: The anti-proliferative effect of the compounds on the human colorectal adenocarcinoma cell line DLD-1 BRCA2^-/- method.
• DLD-1 (purchased from ATCC, Cat. No.: CCL-221, Batch No.: 70033255); • RPMI1640 (purchased from Invitrogen, Cat. No.: 11875-085); • 0.25% Trypsin-EDTA (purchased from Invitrogen, Cat. No.: 25200-072); • Penicillin-Streptomycin solution (purchased from Hyclone, Cat. No.: SV30010); • FBS (purchased from BI, Cat. No.: 04-002-1A); • DMSO (purchased from Sigma, Cat. No.: D4540-1L); • 96-well plate (purchased from Corning, Cat. No.: CLS3903); • CellTiter-Glo reagent (purchased from Promega, Cat. No.: G7558).
The anti-proliferative effect of the compounds on a human colorectal adenocarcinoma cell line was evaluated using an ATP quantification method, wherein the measured activity correlates well with the number of viable cells. The genetically edited cell line DLD-1 BRCA2^-/- was cultured in RPMI 1640 medium (Invitrogen, 11875-085) supplemented with 10% (v/v) fetal bovine serum (BI, 04-002-1A). The cell line was cultured according to the standard instructions of the American Type Culture Collection (ATCC) and identified via short tandem repeat (STR) genotyping.
In the proliferation assay, cells were harvested and resuspended in cell culture medium. Cell density was determined using a cell counter. An appropriate volume of cell suspension was aspirated from the centrifuge tube to prepare a plating working solution (150 cells/100 µL for the DLD-1 BRCA2^-/- cell line). 100 µL of the cell suspension was seeded into each well of a 96-well plate (Corning, 3603) and incubated overnight in an incubator. The diluted test compound solutions were added to the wells. On the fourth and seventh days of compound incubation, the medium was replaced with fresh culture medium, and the compounds were re-administered, for a total incubation period of 10 days. Following incubation, the cell culture plates were removed and equilibrated to room temperature. 100 µL of CellTiter-Glo (Promega, G7558) was added to each well, and the plate was incubated at room temperature for 30 minutes. Data were read using a microplate reader (PerkinElmer, Enspire) in 96-well luminescence mode. Data analysis, curve fitting, and reporting were performed using the dose-response one-site 205 model of IDBS XL fit. Table 2: Proliferation inhibitory activity of compounds against DLD-1 BRCA2-/- cells

[2] = Thermodynamic solubility determination in FaSSIF; format: physicochemical; details: thermodynamic from solid, FaSSIF pH 6.5, 37°C
Method: • (1) The control compound, diclofenac sodium, was purchased from Sigma. • (2) FaSSIF, FeSSIF & FaSSGF (FFF02) powders were purchased from Biorelevant. • (3) 1.5 mL flat-bottom glass vials (purchased from local suppliers); PTFE/silicone septa (BioTech Solutions); PTFE-coated stir bars (V&P Scientific); MultiScreenHTS HV (0.45 µm) 96-well plates (Millipore, MSHVN4510 or MSHVN4550); Eppendorf Thermomixer Comfort; Vacuum Manifold ORVMN96 (Orochem).
0.420 g of NaOH, 3.438 g of NaH2PO4, and 6.186 g of NaCl were dissolved in approximately 900 mL of ultrapure water, and the pH of the solution was adjusted to 6.5 using 1N NaOH or 1N HCl. The solution was then diluted to 1000 mL with ultrapure water at room temperature.
2.240 g of FaSSIF, FeSSIF, and FaSSGF powder was added to approximately 500 mL of Buffer A. The mixture was stirred until the powder was completely dissolved. The solution was then diluted to 1000 mL with Buffer A at room temperature.
The solution was allowed to stand for 2 hours. The solution became slightly opalescent and was ready for use at that point. Note: it was to be used within 48 hours at room temperature or within 24 hours at 37°C.
(2) The test compounds and control compounds were weighed for solubility measurement (approximately 1.0 mg each in three separate 1.5 mL glass vials).
(3) For each compound, one vial served as a standard, and the other two vials were used for solubility measurement in duplicate.
(4) Each compound was placed sequentially into its appropriate 96-well plate. One plate served as the standard plate and the other as the sample plate.
(5) Based on the mass of the sample in each vial on the sample plate, an appropriate volume (approximately 1000 µL) of FaSSIF was added to each vial of the solubility sample plate using a pipette. […]
All calculations were performed using Microsoft Excel. Analysis and quantification of the sample filtrates were completed via LC-MS/MS by qualitative and quantitative comparison against the peaks of standards with known concentrations. […]

Row | SMILES | pIC50 [1] | solubility at 24 h [2] [µg/mL] | solubility ([2]; 24 hours) [µg/mL]
1 | [2H]C([2H])([2H])O[C@@H](C)c1ccc(CS(=O)(=O)NC(=O)c2ccc(C([2H])([2H])[2H])cc2-c2cc(C(F)F)ncc2OC)cc1 [cpd-16, (S)-2-(2-(Difluoromethyl)-5-methoxypyridin-4-yl)-N-((4-(1-(methoxy-d3)ethyl)benzyl)sulfonyl)-4-(methyl-d3)benzamide] | 7.62 | 669 (≈ 1310 µM) | 
2 | COc1cnc(Cl)cc1-c1cc(C)ncc1C(=O)Nc1nnc(OC[C@H]2COCCO2)s1 [Ref. 1, reference compound] | 7.68 |  | 31 (≈ 64.9 µM)
3 | [2H]C([2H])([2H])O[C@@H](C)c1ccc(CS(=O)(=O)NC(=O)c2ccc(C([2H])([2H])[2H])cc2-c2cc(Cl)ncc2OC)cc1 [cpd-17, (S)-2-(2-Chloro-5-methoxypyridin-4-yl)-N-((4-(1-(methoxy-d3)ethyl)benzyl)sulfonyl)-4-(methyl-d3)benzamide] | 7.80 | 511 (≈ 1030 µM) | 
